The source made the active and inactive calls.
Key:
Assay type in all cases: functional, organism-based
Nakaseomyces glabratus = assay: Antifungal activity against Candida glabrata at <100 ug/mL by microbroth dilution method
Pichia kudriavzevii = assay: Antifungal activity against Candida krusei at <100 ug/mL by microbroth dilution method
Candida albicans [1] = assay: Antifungal activity against fluconazole-resistant Candida albicans 96-489 at <100 ug/mL by microbroth dilution method
Candida albicans [2] = assay: Antifungal activity against Candida albicans ATCC 4503 at <100 ug/mL by microbroth dilution method

Measured: Activity

C[C@@H](C/C=C/C(=O)N(C)[C@@H](C[C@H](C)C(Cl)(Cl)Cl)C(=O)O)C(Cl)(Cl)Cl
inactive: all assays above

Source: ChEMBL document CHEMBL1155669, “Herbacic acid, a simple prototype of 5,5,5-trichloroleucine metabolites from the sponge Dysidea herbacea” (J Nat Prod, 2000)
